Reference: US20090012133A1, “Polymorphic Form of -Acetic Acid” (SMITHKLINE BEECHAM CORPORATION, priority 2006, published 2009)

Columns and labels:
[1] = stability of the crystal form at ambient temperatures; format: physicochemical
[2] = hygroscopicity of the crystalline form; format: physicochemical

- stability of crystal form [1]: stable
- hygroscopic nature of crystalline form [2]: non-hygroscopic
SMILES: Cc1cc(SCc2sc(-c3ccc(C(F)(F)F)cc3)nc2C)ccc1OCC(=O)O [Form 7, {2-methyl-4-[4-methyl-2-(4-trifluoromethylphenyl)thiazol-5-ylmethylthio]phenoxy}-acetic acid]
